Test results published in PubChem BioAssay AID504882 (Broad Institute, 2011).
Records with an inconclusive call do not appear. Calls of active or inactive are those of the source. The rule behind the calls is not given here.

System: EBV lymphoblastoid cells (LCL) viability, plate reader
Assay: LCL viability reduction – cell-based, plate reader, cherry-picks, set 2, cytotoxicity control, dose response (AID 504882)

Structure (SMILES) | AC50
CN=C1S/C(=C\c2ccc(O)c(Br)c2)C(=O)N1C | > 19.5 µM (inactive)
O=C(c1cccc(F)c1)N1CCN(c2cccc(Cl)c2)CC1 | 3.11 µM
C=CC(=O)OCCOCCOCCOCCOC(=O)C=C | 16.9 µM
N#CC(C#N)=NNc1ccc(-n2ccc(C(F)(F)F)n2)cc1 | 2.53 µM
CN1CCN(/N=C/c2ccc(N(c3ccccc3)c3ccccc3)cc2)CC1 | 0.354 µM
COc1ccc(CNC(=O)N2[C@H]3CC[C@@H]2C=C(c2ccc(F)cc2OCc2ccccc2)C3)cc1OC | 2.3 µM
CC(=NNC(=S)Nc1ccc(C)cc1)c1ccccn1 | 0.269 µM
C[n+]1c2n(c3ccccc31)N=C(c1cc(C(C)(C)C)c(O)c(C(C)(C)C)c1)CS2 | 7.62 µM
O=S(=O)(c1ccccc1)N1CCN(c2cc(-c3ccccc3)nc3ncnn23)CC1 | > 19.5 µM (inactive)
COc1ccc(C=C2CS(=O)(=O)CC(=Cc3ccc(OC)cc3)C2=O)cc1 | 0.675 µM
Cc1[nH]n(-c2ccccc2)c(=O)c1/C=N/Nc1nncc(-c2ccccc2)n1 | 0.83 µM
O=[N+]([O-])c1ccc(O)c(/C=N/Nc2ncnc3c2cnn3-c2ccccc2)c1 | 4.55 µM
CC(C)OC(=O)c1ccc(NCc2cc(O)ccc2O)cc1Cl | 5.06 µM
Cc1ccc(C(=O)N/N=C/c2c(O)ccc3ccccc23)cn1 | 17 µM
Oc1cccc(C(Nc2nccs2)c2ccc3cccnc3c2O)c1 (stereo not given) | 11.4 µM
COc1ccc(-c2nnc(NC(=O)c3ccc(S(=O)(=O)N4CCCc5ccccc54)cc3)o2)cc1 | 15 µM
C=CCn1c(O)c(N=NC(=S)Nc2cccc(C)c2)c2ccccc21 | 2.48 µM
Cn1c(/C=C/c2ccccc2)nc2ccccc21 | 13.9 µM
c1ccc(-c2cccc(-c3ccccn3)n2)nc1 | 1.69 µM
Cn1nnnc1N=N/C(=N/Nc1ccccc1)c1ccccc1 | 1.71 µM
COc1ccccc1-c1nc(-c2ccccn2)no1 | 10.8 µM
NC(Cc1ccc(O)cc1)C(=O)NN=Cc1ccc(N(CCCl)CCCl)cc1 (stereo not given) | 0.983 µM
O=C(Nc1nnc(SCc2ccc(F)cc2)s1)c1ccccn1 | 14.1 µM

Structure (SMILES) | AC50
CCOc1ccc(C(=O)Nc2cc(C)ccn2)cc1 | 9.64 µM
CCn1c2ccccc2c2cc(/C=N/n3cn[nH]c3=S)ccc21 | 3.79 µM
CS(=O)(=O)c1ncc(Cl)c(C(=O)Nc2ccc(OC(F)F)cc2)n1 | 4.53 µM
CCCN(CCC)S(=O)(=O)c1ccc(C(=O)Nc2nnc(-c3cc(OC)cc(OC)c3)o2)cc1 | > 19.5 µM (inactive)
CC(=NNC(=S)N1CC2CCC(CC2)C1)c1nccs1 | 0.362 µM
COc1ccc(O)c(/C=N/NC(=O)c2ccc(OCc3cccc(Br)c3)cc2)c1 | 4.03 µM
O=C1C(=C(c2ccccc2)N2CCOCC2)Cc2ccccc21 | 5.38 µM
CCc1ccc(Nc2n[n+](-c3ccccc3)c(-c3c(Cl)cccc3Cl)s2)cc1 | 15 µM
CN(C)c1ccc(C=Cc2ccnc3c(O)cccc23)cc1 | 10.5 µM
CC(=O)NC(c1ccc(Cl)cc1Cl)c1ccc2cccnc2c1O (stereo not given) | 1.56 µM
CCCC(=O)NC(c1ccc(C(C)C)cc1)c1ccc2cccnc2c1O (stereo not given) | 1.74 µM
O=c1[nH]c(=O)n([C@H]2C[C@H](O)[C@@H](CO)O2)cc1C(F)(F)F | 1.51 µM
CCOC(=O)c1c(C)[nH]c(C(=O)N/N=C\c2ccccc2O)c1C | 6.7 µM
c1ccc(C2=NNC(=NC3CC3)SC2)cc1 | 11.9 µM
COc1ccc(C(=O)NC(=S)NNC(=O)c2ccc3ccccc3n2)cc1 | 3.69 µM
CC(=NNc1nc2ccccc2o1)c1cc2ccccc2cn1 | 0.154 µM
O=S(=O)(c1ccc2c(c1)C(=NO)c1cc(S(=O)(=O)N3CCCCC3)ccc1-2)N1CCCCC1 | 1.2 µM
O=C(NC(c1ccc(Cl)cc1)c1cc(Cl)c2cccnc2c1O)c1cccnc1 (stereo not given) | 4.72 µM
CC(=NNC(=S)N1CCCCC1)c1cccc(C)n1 | 2.37 µM
COc1ccc(C(NC(C)=O)c2cc(Cl)c3cccnc3c2O)cc1 (stereo not given) | 6.92 µM
O=C(NNC(=S)Nc1ccc(Cl)c(Cl)c1)c1ccccn1 | 1.5 µM
Cc1cc(C)nc(SCc2ccc(C(=O)N/N=C/c3cccc(O)c3O)cc2)n1 | 10.9 µM
CCn1c2ccccc2c2cc(/C=N/NC(=O)c3ccncc3)ccc21 | 3.31 µM

Structure (SMILES) | AC50
COc1cccc(/C=N/Nc2ncnc3c2ncn3Cc2ccccc2)c1O | 2.21 µM
CCOc1ccc(/C=C/[N+](=O)[O-])c2ccccc12 | 1.92 µM
COc1cccc(N=Nc2ccc(O)c3ncccc23)c1 | 2.18 µM
C/C(=N\NC(=O)c1cccc(Br)c1)c1ccccn1 | 0.803 µM
NC(=S)NN=Cc1nccc2c(C(F)(F)C(F)(F)C(F)(F)F)cccc12 | 0.452 µM
C=CCn1c(O)c(N=NC(=S)Nc2ccccc2F)c2ccccc21 | 10.2 µM
CC(C)CC(=NNC(=O)c1ccncc1)c1cc(Cl)ccc1O | 3.19 µM
CCCCC(=O)NC(c1ccc(Cl)cc1Cl)c1ccc2cccnc2c1O (stereo not given) | 2.55 µM
NC(=S)N/N=C/c1ncc(C(F)(F)F)cc1Cl | 10.6 µM
C(=Cc1cnc2ccccc2n1)c1ccc2c(c1)OCO2 | 6.12 µM
O=[N+]([O-])c1c(Nc2cccc(O)c2)cc(Cl)c2nonc12 | 2.73 µM
CCCCC(=O)NC(c1ccc(Cl)cc1)c1ccc2cccnc2c1O (stereo not given) | 3.65 µM
N#Cc1ccc(-c2csc(NNC(=O)c3ccc(Br)cc3)n2)cc1 | 5.38 µM
COc1ccc(N/N=C/c2c(C(=O)O)ccc3ccccc23)cc1 | 3.99 µM
O=C(N/N=C/c1ccc(O)cc1O)c1ccc(CN2C(=O)c3cccc4cccc2c34)cc1 | 3.53 µM
CCOc1cccc(/C=N/Nc2ccc(S(=O)(=O)N(CC)CC)cn2)c1O | 1.79 µM
O=C(/C=C1\NC2(CCCC2)Cc2ccccc21)C(=O)N/N=C/c1ccccc1O | 18 µM
C#Cc1cc(N2CCN(C(=O)c3ccoc3)CC2)n2nc(-c3cccc(Cl)c3)cc2n1 | 10.4 µM
CC(=NNc1nc2ccccc2s1)c1ncccn1 | 10.2 µM
CCOc1ccc(C(C)=O)cc1COc1cccnc1[N+](=O)[O-] | > 19.5 µM (inactive)
CC(=NNC(=S)N1CCN(c2ccccn2)CC1)c1nccs1 | 0.429 µM
Cc1ccc2nc(-c3ccccn3)[nH]c2c1 | 19.5 µM
CCn1c2ccccc2c2cc(/C=C(/C#N)C(N)=S)ccc21 | 0.998 µM

Structure (SMILES) | AC50
C=CCNC(=S)N/N=C(\C)c1ccccn1 | 0.13 µM
C=CCn1c(C)c(C(C)=O)c(N2CCN(C(c3ccccc3)c3ccccc3)CC2)nc1=S | > 19.5 µM (inactive)
CCc1sc(C(=O)Nc2nc(-c3ccccn3)cs2)cc1C | 7.43 µM
CC(=O)Nc1nc(C)c(-c2csc(Nc3ccc(O)cc3)n2)s1 | 19.4 µM
CCN1CCN(Cc2ccc(NC(=O)c3ccc(C)c(/C=C/c4cnc(Nc5cc(N6CCNCC6)nc(C)n5)cn4)c3)cc2C(F)(F)F)CC1 | 9.23 µM
CC(=NNC(=S)Nc1ccccc1)c1ccccn1 | 0.068 µM
Cc1ccc(/C=N/NC(=O)c2cc(-c3ccccc3)nc3ccccc23)o1 | > 19.5 µM (inactive)
Oc1cccc2ccc(Nc3ccccn3)nc12 | 6.35 µM
COc1cccc(/C=N/NC(=O)c2[nH]nc3c2CCc2ccccc2-3)c1O | 4.51 µM
Clc1ccc(SCc2cc(N3CCOCC3)nc(-c3ccccn3)n2)cc1 | 4.05 µM
CCN(CC)C(=O)c1ccc(NC(=O)Nc2ccccc2F)cc1 | 2.63 µM
Oc1ccc(C=NNC(=S)Nc2ccccc2)nc1 | 13 µM
C#CCN(C[C@@H]1[C@@H](OC(=O)NCC2CCCCC2)[C@@H](OC(=O)NCC2CCCCC2)Cn2c(=O)ccc(=O)n21)S(=O)(=O)c1ccc(C)cc1 | 3.84 µM
CCN(CC)c1ccc(/C=N/Nc2nc3ccccc3[nH]2)c(O)c1 | 2.74 µM
CCCc1cc(=O)n2[nH]cc(-c3ccc(Cl)cc3)c2n1 | 8.45 µM
CCN(CC)S(=O)(=O)c1cc([N+](=O)[O-])ccc1NNC(=O)Nc1ccc(Cl)c(Cl)c1 | 20.2 µM
CCN(CC)CCC(=O)N1C/C(=C/c2ccccc2)C(=O)/C(=C\c2ccccc2)C1 | 1.36 µM
CCCCC(=O)NC(c1ccc(OC)c(OC)c1)c1ccc2cccnc2c1O (stereo not given) | 5.63 µM
Cc1ccc2[nH]c3c(c2c1)CCCC3NC(=O)CCl (stereo not given) | 1.41 µM
O=c1c2c(nc3c(-c4ccc(Cl)cc4)c[nH]n13)CCCC2 | 2.44 µM
CNc1cccnc1C=NNC(N)=S | 7.97 µM
Cc1nc2c(-c3ccc(Cl)cc3)c(C)[nH]n2c(=O)c1Cc1ccccc1 | 6.96 µM
Cc1ccc2[nH]c3c(N4CCN(Cc5ccccc5)CC4)ncnc3c2c1 | 10.6 µM

Structure (SMILES) | AC50
N#Cc1c(Oc2ccc3ccccc3c2)sc(C(=O)c2ccccc2)c1N | 20 µM
O=C(/C=C/c1ccco1)Oc1cc(Br)cc(/C=N/NC(=O)c2ccccc2O)c1 | 6.29 µM
COc1cc(C(=O)Oc2ccccc2/C=N/NC(=O)c2ccc(C)c(Cl)c2)cc(OC)c1OC | 12.7 µM
CC(C)C(=O)NC(c1ccc(Cl)cc1Cl)c1ccc2cccnc2c1O (stereo not given) | 2.28 µM
Cc1cc(S(=O)(=O)c2ccc(Cl)cc2)nc(S(=O)(=O)c2ccc(Cl)cc2)c1C#N | 0.855 µM
O=C(NC(Nc1nc2ccc([N+](=O)[O-])cc2s1)(C(F)(F)F)C(F)(F)F)c1ccccc1 | 0.298 µM
COc1ccccc1N(C(C)=O)C1=C(Cl)C(=O)c2ccccc2C1=O | 2.59 µM
CCn1c2ccccc2c2cc(/C=N/NC(=O)c3ccccc3)ccc21 | 1.52 µM
CCN(CC)c1ccc(/C=N/NC(=O)c2c(Cl)cnn2C)c(O)c1 | 3.19 µM
COc1ccc(/C=N/Nc2cc(C)nc3ccc(OC)cc23)c(OC)c1 | 3.47 µM
CCC(=O)NC(c1cc(Cl)c2cccnc2c1O)C1CC1 (stereo not given) | 6.08 µM
CC1(C)N=C(N)N=C(N)N1c1ccc(CCCCc2ccccc2)cc1 | 0.991 µM
O=C(CF)N(O)c1ccc(C=Cc2ccccc2)cc1 | 4.21 µM
CC(=O)NC(c1ccc2ccccc2c1)c1ccc2cccnc2c1O (stereo not given) | 1.93 µM
CCN(CC)S(=O)(=O)c1ccc(N/N=C/c2ccc(O)cc2O)nc1 | 3.31 µM
Oc1c(C(Nc2nc3ccccc3s2)c2ccco2)ccc2cccnc12 (stereo not given) | 2 µM
CC1=C(C(=O)OCc2ccc3c(c2)OCO3)C(c2ccc(Cl)cc2)NC(=O)N1 (stereo not given) | 0.379 µM
CCn1c2ccccc2c2cc(/C=N/n3c(-c4cc(C)[nH]n4)n[nH]c3=S)ccc21 | 6.59 µM
COc1ccc(-c2ccc(NC(=O)c3ccco3)cc2)nn1 | 4.42 µM
O=c1c2c(nc3c(-c4cccc(Br)c4)c[nH]n13)CCCC2 | 11 µM
CC(=O)NC(c1cccs1)c1cc(F)c2cccnc2c1O (stereo not given) | 6.96 µM
CC(=NNc1nc2ccccc2o1)c1ncccn1 | 0.384 µM
C=C1C(=O)C2=CC1CCC(=O)C1(C)CCC(OC(C)=O)C(C)(C)C1CC2O (stereo not given) | 5.14 µM
